This is an account of results in patent publication US9018259B2, “Treatment of cancer using benzoic acid derivatives” (New York University, priority 2004, dated 2015).

Data set [1] concerns B16F10 melanoma cells. The data set can be described thus: Chick embryo tumor growth model. The format is in vivo, chick embryos. To be noted: B16F10 cells cultured with 50 μg/ml C-45 at least 7 days before implantation; for growth of B16F10 tumors in chick embryos, with or without TAXOL: TAXOL 0.01 μM, FIG. 5B. Here is the method: The chick embryo tumor growth model was used to determine whether C-45 enhances the ability of TAXOL® (paclitaxel) or ionizing radiation to inhibit tumor growth. Briefly, B16F10 melanoma cells were cultured in growth medium in the presence or absence of 50 μg/ml C-45 for at least 7 days. Following harvesting and washing, about 2×10^5 tumor cells were implanted onto the chorioallontoic membranes of 10 day-old chick embryos and incubated for at least 24 hours. Following incubation, the embryos were treated with either a single fractionated dose of radiation (5.0 Gy) or TAXOL® (paclitaxel) (0.01 μM) and incubated for an additional 7 days. The embryos were sacrificed and tumors were resected and weighed (5-10 embryos per condition).

The subject of data set [2] is tyrosinase (from mushrooms). Put plainly: Purified tyrosinase activity, formation of DOPAchrome from L-DOPA. The format is biochemical. To be noted: at 8.0 mM, up to 10 minutes; L-DOPA 8.0 mM, 800 U/ml tyrosinase; FIG. 2. Here is the method: Activity of purified tyrosinase was measured by monitoring the formation of DOPAchrome. Briefly, a fixed concentration of L-DOPA (8.0 mM) was incubated with 800 U/ml tyrosinase (from mushrooms-Sigma, St. Louis, Mo.) in the absence or presence of increasing concentrations of PABA, compound 44 (C-44) and compound 45 (C-45) (see FIG. 1 for structures) for indicated time points (see FIG. 2 for concentrations and time points). At each time point, 100 μl of the reaction mixture was measured. Data points represent the mean optical density at 475 nm±SD from triplicate wells.

Data set [3] deals with 4T1 breast carcinoma cells. The data set can be described thus: Tumor cell proliferation, WST-1 tetrazolium salt cleavage. In kind it is cell-based. To be noted: 50 μg/ml test compound for 3 days, with or without 0.01 μM TAXOL for additional 48 hours; compared to untreated control; FIG. 3C. The method, then:
(§1) Tumor cell proliferation was assessed by monitoring mitochondrial dehydrogenase activity as detected by tetrazolium salt cleavage using a commercially available kit (WST-1; Roche, Indianapolis, Ind.). Briefly, B16F10 melanoma cells, Lewis Lung carcinoma cells, and 4T1 breast carcinoma cells (1×10^6) were resuspended in PABA-free growth medium supplemented with 2.0% fetal bovine serum and 50 μg/ml of test compound (as shown in FIG. 1) Following incubation for 3 days, the cells were either treated or not treated with 0.01 μM TAXOL® (paclitaxel) and incubated for an additional 48 hours. Proliferation was measured; data points represent the mean optical density at 490 nm±SD from triplicate wells.
(In general: Tetrazolium assays rely on reduction of a dye to a coloured formazan, in cell work by metabolically active cells.)

The subject of data set [4] is Lewis Lung carcinoma cells. The data set is described as above. The format is cell-based. To be noted: 50 μg/ml test compound for 3 days, with or without 0.01 μM TAXOL for additional 48 hours; compared to untreated control; FIG. 3B. Here is the method: as §1
In data set [5] the test system is B16F10 melanoma cells. The data set is described as above. In kind it is cell-based. Conditions: 50 μg/ml test compound for 3 days, with or without 0.01 μM TAXOL for additional 48 hours; compared to untreated control; FIG. 3A. Here is the method: as §1
Data set [6] relates to B16F10 melanoma cells. Put plainly: In vivo tumor growth of B16F10 xenografts in nude mice. Conditions: B16F10 s.c. xenograft, daily intraperitoneal injection for 15 days, TAXOL 0.5 μM, C-45 100 μg, FIG. 4. The method, then: In addition, tumor growth in vivo of xenografts of B16F10 melanoma cells in nude mice was determined. Briefly, subconfluent cultures of B16F10 cells were harvested, washed, and resuspended in sterile PBS. Female nude mice were injected subcutaneously with 1×10^6 cells per mouse and tumors were allowed to grow for 3 days. After 3 days, mice were either untreated or treated daily for 15 days by intraperitoneal injection of TAXOL® (paclitaxel) (0.5 μM), C-45 (100 μg), or a combination of TAXOL® (paclitaxel) and C-45. Tumor growth was determined weekly by caliper measurements. After 15 days, the mice were sacrificed and tumor volume was determined by standard methods using the formula […], where V=volume, L=length, and W=width.

Another data set relates to CDC25A. Put plainly: CDC25A protein expression in G361 melanoma cells treated with PABA. In kind it is cell-based. To be noted: G361 human melanoma cells treated with PABA; data not shown. From the text:
(§2) To determine whether tumor cells abnormally express and signal through the PXR/SXR receptor compared to their non-transformed counterparts, and thus, candidates for treatment with PXR/SXR agonists, immortalized, non-transformed cells and sub-confluent transformed, tumorigenic cells will be cultured in the presence or absence of various concentrations of a known PXR/SXR activator, e.g., benzoic acid derivatives, and a negative control, e.g., streptomycin, for a pre-determined time e.g., 5 days. Cell lyses will be achieved as described above. Following lyses, about 15 μg/lane of protein will be loaded and separated by 10% SDS-PAGE, followed by transfer to nitrocellulose membranes. Membranes will then incubated in the presence of e.g., monoclonal antibody 39048, specific for the PXR/SXR nuclear receptor, followed by washing and labeling with a peroxidase-labeled secondary antibody.
(§3) Similarly, to evaluate expression of cell cycle proteins that may be regulated by PXR/SXR activation in response to drug treatment, membranes as prepared above will be incubated with commercially available monoclonal antibodies such as PC410 (Chemicon, Temecula, Calif.), directed against β-integrin, as a positive control, monoclonal antibody 3303, specific for BRCA-2 (QED Biosciences, San Diego, Calif.), and with monoclonal antibody AB-3, directed against CDC25A (NeoMakers Inc). […]

Another data set has as its target T1, PXR/SXR receptor (Homo sapiens, UniProt O75469).
T1 sequence (O75469 1-434): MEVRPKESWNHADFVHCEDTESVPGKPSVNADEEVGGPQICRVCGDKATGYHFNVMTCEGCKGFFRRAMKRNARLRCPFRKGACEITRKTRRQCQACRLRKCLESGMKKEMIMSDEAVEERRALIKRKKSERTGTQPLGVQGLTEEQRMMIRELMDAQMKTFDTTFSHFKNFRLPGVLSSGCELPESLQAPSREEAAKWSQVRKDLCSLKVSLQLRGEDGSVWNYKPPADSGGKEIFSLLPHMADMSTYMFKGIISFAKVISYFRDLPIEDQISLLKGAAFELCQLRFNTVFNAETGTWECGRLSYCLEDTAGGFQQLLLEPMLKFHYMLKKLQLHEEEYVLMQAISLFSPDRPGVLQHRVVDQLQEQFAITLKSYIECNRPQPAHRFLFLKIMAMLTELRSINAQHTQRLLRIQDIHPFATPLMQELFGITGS
Conditions: Moore et al., Mol. Endocrinol. 2002; 16: 977-986; cited from earlier work.

The next data set concerns BRCA-2. Put plainly: BRCA-2 protein expression in G361 melanoma cells treated with PABA. Conditions: G361 human melanoma cells treated with PABA; data not shown. In kind it is cell-based.
Text: as §2, §3

On to `C=CCNc1ccc(C(=O)O)cc1` [C-45], for which the “growth of B16F10 tumors in chick embryos, with or without TAXOL” value in the data set on B16F10 melanoma cells [1] is “inhibited the growth of the B16F10 tumors significantly”. Besides, in the data set on B16F10 melanoma cells [1] (single dose of radiation 5.0 Gy, FIG. 5A), the “tumor weight / tumor growth in chick embryos, with or without radiation” value is reported as “reduced tumor weight significantly”. Also, in [2], the “inhibition of tyrosinase activity (DOPAchrome formation, optical density at 475 nm)” value was “inhibited tyrosinase activity”. The “in vitro proliferation of 4T1 breast carcinoma cells (optical density at 490 nm)” value in [3] is given as “inhibited in vitro proliferation”. The “in vitro proliferation of Lewis Lung carcinoma cells (optical density at 490 nm)” value in [4] is listed as “inhibited in vitro proliferation”. Moreover, the “in vitro proliferation of B16F10 cells (optical density at 490 nm)” value in the data set on B16F10 melanoma cells [5] is “inhibited in vitro proliferation”. For the same compound, in the data set on B16F10 melanoma cells [6], the “in vivo tumor growth (tumor volume) compared to untreated controls” value is “neither TAXOL® (paclitaxel) nor C-45 inhibited in vivo tumor growth”.

Regarding `Nc1ccc(C(=O)O)cc1` [PABA, para-amino-benzoic acid], the “expression of cell-cycle progression checkpoint protein CDC25A” value with CDC25A is reported as “increase expression of cell-cycle progression checkpoint protein CDC25A”. Moreover, the “inhibition of tyrosinase activity (DOPAchrome formation, optical density at 475 nm)” value in data set [2] is “inhibited tyrosinase activity”. Besides, the “binding and activation of the PXR/SXR receptor” value at PXR/SXR receptor is “bind and activate the PXR/SXR receptor”. Moreover, the “protein expression of DNA repair protein BRCA-2” value in the data set with BRCA-2 is on record as “decreased protein expression of DNA repair protein BRCA-2”.

As to `CC(=O)O[C@H]1C(=O)[C@@]2(C)[C@H]([C@H](OC(=O)c3ccccc3)[C@]3(O)C[C@H](OC(=O)[C@H](O)[C@@H](NC(=O)c4ccccc4)c4ccccc4)C(C)=C1C3(C)C)[C@]1(OC(C)=O)CO[C@@H]1C[C@@H]2O` [TAXOL® (paclitaxel), paclitaxel], in the data set with B16F10 melanoma cells [1], the “growth of B16F10 tumors in chick embryos, with or without TAXOL” value is given as “inhibited the growth of the B16F10 tumors significantly”. Besides, the “in vitro proliferation of 4T1 breast carcinoma cells (optical density at 490 nm)” value in [3] is “inhibited in vitro proliferation”. Moreover, the “in vitro proliferation of Lewis Lung carcinoma cells (optical density at 490 nm)” value in [4] is “inhibited in vitro proliferation”. In addition, the “in vitro proliferation of B16F10 cells (optical density at 490 nm)” value in the data set with B16F10 melanoma cells [5] is “inhibited in vitro proliferation”. Besides, the “in vivo tumor growth (tumor volume) compared to untreated controls” value with B16F10 melanoma cells [6] is on record as “neither TAXOL® (paclitaxel) nor C-45 inhibited in vivo tumor growth”.
